Test results taken from ChEMBL document CHEMBL5058645, “Data for DCP probe JNJ-6204” (2022).

Legend:
[1] = molecular target: Activin receptor type-1-like (Homo sapiens) (UniProt P37023); experiment: ALK1(h) Kinase panel; conditions: Compound concentration 1.0 uM, tested as the 2H-labelled form
[2] = molecular target: Aurora kinase B (Homo sapiens) (UniProt Q96GD4); experiment: Aurora-B(h) Kinase panel; conditions: Compound concentration 1.0 uM, tested as the 2H-labelled form
[3] = molecular target: Calcium/calmodulin-dependent protein kinase type 1G (Homo sapiens) (UniProt Q96NX5); experiment: CaMKIgamma(h) Kinase panel; conditions: Compound concentration 1.0 uM, tested as the 2H-labelled form
[4] = molecular target: Calcium/calmodulin-dependent protein kinase kinase 2 (Homo sapiens) (UniProt Q96RR4); experiment: CaMKK2(h) Kinase panel; conditions: Compound concentration 1.0 uM, tested as the 2H-labelled form
[5] = molecular target: Cyclin-dependent kinase 12 (Homo sapiens) (UniProt Q9NYV4); experiment: CDK12/cyclinK(h) Kinase panel; conditions: Compound concentration 1.0 uM, tested as the 2H-labelled form
[6] = molecular target: Transient receptor potential cation channel subfamily M member 7 (Homo sapiens) (UniProt Q96QT4); experiment: ChaK1(h) Kinase panel; conditions: Compound concentration 1.0 uM, tested as the 2H-labelled form
Transient receptor potential cation channel subfamily M member 7 (Homo sapiens), sequence (Q96QT4 whole entry): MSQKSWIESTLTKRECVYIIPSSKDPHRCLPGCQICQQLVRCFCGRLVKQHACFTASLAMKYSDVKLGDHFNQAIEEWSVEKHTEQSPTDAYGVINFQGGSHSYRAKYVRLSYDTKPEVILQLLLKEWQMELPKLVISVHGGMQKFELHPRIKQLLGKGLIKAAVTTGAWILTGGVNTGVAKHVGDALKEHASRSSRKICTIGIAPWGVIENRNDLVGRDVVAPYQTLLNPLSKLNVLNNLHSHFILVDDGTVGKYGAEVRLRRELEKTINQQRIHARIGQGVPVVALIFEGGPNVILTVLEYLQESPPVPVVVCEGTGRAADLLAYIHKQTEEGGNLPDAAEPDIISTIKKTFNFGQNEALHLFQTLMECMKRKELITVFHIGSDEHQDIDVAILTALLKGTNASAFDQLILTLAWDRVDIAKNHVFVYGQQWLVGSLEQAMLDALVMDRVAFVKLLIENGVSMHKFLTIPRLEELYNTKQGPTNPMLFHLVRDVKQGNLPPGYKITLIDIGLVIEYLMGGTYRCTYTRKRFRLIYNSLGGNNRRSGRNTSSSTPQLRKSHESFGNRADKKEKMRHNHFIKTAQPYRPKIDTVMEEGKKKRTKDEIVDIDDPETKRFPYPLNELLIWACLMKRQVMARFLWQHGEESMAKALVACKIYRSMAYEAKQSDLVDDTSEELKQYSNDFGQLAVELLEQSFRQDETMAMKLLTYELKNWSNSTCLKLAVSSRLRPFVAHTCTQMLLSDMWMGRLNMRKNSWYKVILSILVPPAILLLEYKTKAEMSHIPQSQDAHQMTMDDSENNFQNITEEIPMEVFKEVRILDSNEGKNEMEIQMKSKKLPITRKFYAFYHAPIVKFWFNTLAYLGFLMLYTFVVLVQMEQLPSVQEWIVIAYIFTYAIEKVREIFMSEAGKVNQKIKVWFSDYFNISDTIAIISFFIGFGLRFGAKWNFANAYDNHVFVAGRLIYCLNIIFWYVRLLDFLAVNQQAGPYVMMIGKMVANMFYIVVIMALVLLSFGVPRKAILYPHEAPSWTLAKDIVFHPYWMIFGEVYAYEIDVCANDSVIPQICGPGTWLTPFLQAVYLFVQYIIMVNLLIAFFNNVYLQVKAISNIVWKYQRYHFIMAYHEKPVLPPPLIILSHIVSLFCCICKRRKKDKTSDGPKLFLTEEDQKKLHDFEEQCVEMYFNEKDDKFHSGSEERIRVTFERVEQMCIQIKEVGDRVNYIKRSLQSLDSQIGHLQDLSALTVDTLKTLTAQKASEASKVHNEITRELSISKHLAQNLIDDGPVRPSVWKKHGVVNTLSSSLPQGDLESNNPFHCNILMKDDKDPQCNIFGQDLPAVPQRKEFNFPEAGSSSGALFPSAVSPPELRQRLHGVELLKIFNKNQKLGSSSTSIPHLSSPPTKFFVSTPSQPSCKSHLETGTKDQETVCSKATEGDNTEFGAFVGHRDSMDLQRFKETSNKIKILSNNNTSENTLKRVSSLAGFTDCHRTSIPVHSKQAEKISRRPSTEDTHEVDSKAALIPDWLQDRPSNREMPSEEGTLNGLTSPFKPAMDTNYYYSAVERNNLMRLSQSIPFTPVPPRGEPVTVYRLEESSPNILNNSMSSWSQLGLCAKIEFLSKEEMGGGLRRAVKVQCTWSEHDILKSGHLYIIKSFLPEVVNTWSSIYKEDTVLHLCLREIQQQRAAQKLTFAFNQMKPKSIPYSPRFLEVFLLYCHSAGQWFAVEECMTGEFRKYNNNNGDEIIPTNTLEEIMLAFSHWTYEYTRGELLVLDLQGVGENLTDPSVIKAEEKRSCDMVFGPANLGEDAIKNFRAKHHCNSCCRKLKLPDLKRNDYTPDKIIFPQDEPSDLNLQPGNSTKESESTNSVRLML

Homo sapiens [7] = species: Homo sapiens; experiment: CK2(h) Kinase panel; conditions: Compound concentration 1.0 uM, tested as the 2H-labelled form
[8] = molecular target: Dual specificity protein kinase CLK1 (Homo sapiens) (UniProt P49759); experiment: CLK1(h) Kinase panel; conditions: Compound concentration 1.0 uM, tested as the 2H-labelled form
[9] = molecular target: Dual specificity protein kinase CLK2 (Homo sapiens) (UniProt P49760); experiment: CLK2(h) Kinase panel; conditions: Compound concentration 1.0 uM, tested as the 2H-labelled form
[10] = molecular target: Dual specificity protein kinase CLK4 (Homo sapiens) (UniProt Q9HAZ1); experiment: CLK4(h) Kinase panel; conditions: Compound concentration 1.0 uM, tested as the 2H-labelled form
[11] = molecular target: Discoidin domain-containing receptor 2 (Homo sapiens) (UniProt Q16832); experiment: DDR2(h) Kinase panel; conditions: Compound concentration 1.0 uM, tested as the 2H-labelled form
[12] = molecular target: Dual specificity tyrosine-phosphorylation-regulated kinase 1B (Homo sapiens) (UniProt Q9Y463); experiment: DYRK1B(h) Kinase panel; conditions: Compound concentration 1.0 uM, tested as the 2H-labelled form
[13] = molecular target: Eukaryotic elongation factor 2 kinase (Homo sapiens) (UniProt O00418); experiment: eEF-2K(h) Kinase panel; conditions: Compound concentration 1.0 uM, tested as the 2H-labelled form
[14] = molecular target: Fibroblast growth factor receptor 2 (Homo sapiens) (UniProt P21802); experiment: FGFR2(h) Kinase panel; conditions: Compound concentration 1.0 uM, tested as the 2H-labelled form
[15] = molecular target: Rhodopsin kinase GRK7 (Homo sapiens) (UniProt Q8WTQ7); experiment: GRK7(h) Kinase panel; conditions: Compound concentration 1.0 uM, tested as the 2H-labelled form
[16] = molecular target: Serine/threonine-protein kinase/endoribonuclease IRE1 (Homo sapiens) (UniProt O75460); experiment: IRE1(h) Kinase panel; conditions: Compound concentration 1.0 uM, tested as the 2H-labelled form
[17] = molecular target: Tyrosine-protein kinase Lck (Homo sapiens) (UniProt P06239); experiment: Lck(h) Kinase panel; conditions: Compound concentration 1.0 uM, tested as the 2H-labelled form
Tyrosine-protein kinase Lck (Homo sapiens), sequence (P06239 2-509 limits assumed): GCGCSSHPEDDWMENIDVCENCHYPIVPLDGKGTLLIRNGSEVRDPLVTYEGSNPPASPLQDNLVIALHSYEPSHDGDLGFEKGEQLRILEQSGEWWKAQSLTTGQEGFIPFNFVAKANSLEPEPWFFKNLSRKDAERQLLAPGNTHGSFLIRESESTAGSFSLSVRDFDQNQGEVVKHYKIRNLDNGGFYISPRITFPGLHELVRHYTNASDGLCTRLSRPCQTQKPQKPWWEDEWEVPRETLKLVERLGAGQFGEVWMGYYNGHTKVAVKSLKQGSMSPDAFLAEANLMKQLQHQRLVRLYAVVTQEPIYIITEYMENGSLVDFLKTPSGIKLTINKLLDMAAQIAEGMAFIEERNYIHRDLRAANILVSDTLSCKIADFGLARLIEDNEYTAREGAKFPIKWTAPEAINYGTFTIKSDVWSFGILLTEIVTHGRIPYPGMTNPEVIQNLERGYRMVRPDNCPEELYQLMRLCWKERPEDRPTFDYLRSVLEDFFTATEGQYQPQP

[18] = molecular target: Tyrosine-protein kinase Lck (Homo sapiens) (UniProt P06239); experiment: Lck(h) activated Kinase panel; conditions: Compound concentration 1.0 uM, tested as the 2H-labelled form
Homo sapiens [19] = species: Homo sapiens; experiment: MAPK2(h) Kinase panel; conditions: Compound concentration 1.0 uM, tested as the 2H-labelled form
[20] = molecular target: Dual specificity mitogen-activated protein kinase kinase 2 (Homo sapiens) (UniProt P36507); experiment: MEK2(h) Kinase panel; conditions: Compound concentration 1.0 uM, tested as the 2H-labelled form
[21] = molecular target: Maternal embryonic leucine zipper kinase (Homo sapiens) (UniProt Q14680); experiment: MELK(h) Kinase panel; conditions: Compound concentration 1.0 uM, tested as the 2H-labelled form
[22] = molecular target: MAPK/MAK/MRK overlapping kinase (Homo sapiens) (UniProt Q9UQ07); experiment: MOK(h) Kinase panel; conditions: Compound concentration 1.0 uM, tested as the 2H-labelled form
[23] = molecular target: SRSF protein kinase 3 (Homo sapiens) (UniProt Q9UPE1); experiment: MSSK1(h) Kinase panel; conditions: Compound concentration 1.0 uM, tested as the 2H-labelled form
SRSF protein kinase 3 (Homo sapiens), sequence (Q9UPE1 whole entry): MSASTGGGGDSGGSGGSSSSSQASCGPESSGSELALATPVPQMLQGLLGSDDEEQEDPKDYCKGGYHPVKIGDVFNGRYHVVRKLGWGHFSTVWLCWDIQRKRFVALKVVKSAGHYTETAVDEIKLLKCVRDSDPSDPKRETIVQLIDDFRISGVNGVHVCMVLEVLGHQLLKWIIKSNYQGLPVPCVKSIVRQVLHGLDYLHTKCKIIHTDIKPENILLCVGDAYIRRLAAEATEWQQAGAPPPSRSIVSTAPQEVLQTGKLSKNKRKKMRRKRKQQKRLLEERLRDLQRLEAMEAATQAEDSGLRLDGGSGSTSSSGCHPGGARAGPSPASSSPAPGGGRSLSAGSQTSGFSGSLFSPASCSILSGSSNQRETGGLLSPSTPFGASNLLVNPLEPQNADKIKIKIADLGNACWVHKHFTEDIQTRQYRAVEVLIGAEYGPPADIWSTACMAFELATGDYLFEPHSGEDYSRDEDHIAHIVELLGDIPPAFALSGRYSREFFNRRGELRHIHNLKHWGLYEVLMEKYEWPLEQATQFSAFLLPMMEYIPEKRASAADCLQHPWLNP

[24] = molecular target: Serine/threonine-protein kinase mTOR (Homo sapiens) (UniProt P42345); experiment: mTOR(h) Kinase panel; conditions: Compound concentration 1.0 uM, tested as the 2H-labelled form
[25] = molecular target: Serine/threonine-protein kinase Nek7 (Homo sapiens) (UniProt Q8TDX7); experiment: NEK7(h) Kinase panel; conditions: Compound concentration 1.0 uM, tested as the 2H-labelled form
[26] = molecular target: Serine/threonine-protein kinase Nek9 (Homo sapiens) (UniProt Q8TD19); experiment: NEK9(h) Kinase panel; conditions: Compound concentration 1.0 uM, tested as the 2H-labelled form
[27] = molecular target: Serine/threonine-protein kinase Nek11 (Homo sapiens) (UniProt Q8NG66); experiment: NEK11(h) Kinase panel; conditions: Compound concentration 1.0 uM, tested as the 2H-labelled form
[28] = molecular target: Serine/threonine-protein kinase PAK 2 (Homo sapiens) (UniProt Q13177); experiment: PAK2(h) Kinase panel; conditions: Compound concentration 1.0 uM, tested as the 2H-labelled form
[29] = molecular target: Eukaryotic translation initiation factor 2-alpha kinase 3 (Homo sapiens) (UniProt Q9NZJ5); experiment: PEK(h) Kinase panel; conditions: Compound concentration 1.0 uM, tested as the 2H-labelled form
[30] = molecular target: Platelet-derived growth factor receptor beta (Homo sapiens) (UniProt P09619); experiment: PDGFRbeta(h) Kinase panel; conditions: Compound concentration 1.0 uM, tested as the 2H-labelled form
[31] = molecular target: RAC-gamma serine/threonine-protein kinase (Homo sapiens) (UniProt Q9Y243); experiment: PKBgamma (h) Kinase panel; conditions: Compound concentration 1.0 uM, tested as the 2H-labelled form
[32] = molecular target: Protein kinase C beta type (Homo sapiens) (UniProt P05771); experiment: PKCbetaI (h) Kinase panel; conditions: Compound concentration 1.0 uM, tested as the 2H-labelled form
[33] = molecular target: Protein kinase C zeta type (Homo sapiens) (UniProt Q05513); experiment: PKCzeta(h) Kinase panel; conditions: Compound concentration 1.0 uM, tested as the 2H-labelled form
Protein kinase C zeta type (Homo sapiens), sequence (Q05513 whole entry): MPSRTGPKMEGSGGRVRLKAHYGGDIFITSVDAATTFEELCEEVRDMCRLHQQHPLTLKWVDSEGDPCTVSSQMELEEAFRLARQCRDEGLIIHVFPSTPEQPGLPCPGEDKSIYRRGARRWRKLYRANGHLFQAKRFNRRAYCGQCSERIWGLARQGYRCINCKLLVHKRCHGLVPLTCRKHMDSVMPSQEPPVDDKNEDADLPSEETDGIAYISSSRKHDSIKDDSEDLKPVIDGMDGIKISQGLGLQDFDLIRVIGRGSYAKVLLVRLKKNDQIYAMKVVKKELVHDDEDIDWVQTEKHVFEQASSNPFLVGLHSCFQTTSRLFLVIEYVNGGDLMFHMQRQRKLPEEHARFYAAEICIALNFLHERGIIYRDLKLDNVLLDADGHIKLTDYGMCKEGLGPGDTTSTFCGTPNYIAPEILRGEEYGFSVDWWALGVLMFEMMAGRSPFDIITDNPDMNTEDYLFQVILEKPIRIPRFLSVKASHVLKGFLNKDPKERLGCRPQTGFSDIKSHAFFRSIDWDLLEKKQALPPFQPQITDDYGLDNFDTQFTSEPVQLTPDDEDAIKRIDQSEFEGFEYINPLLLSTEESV

[34] = molecular target: Serine/threonine-protein kinase PLK4 (Homo sapiens) (UniProt O00444); experiment: Plk4(h) Kinase panel; conditions: Compound concentration 1.0 uM, tested as the 2H-labelled form
[35] = molecular target: Serine/threonine-protein kinase N2 (Homo sapiens) (UniProt Q16513); experiment: PRK2(h) Kinase panel; conditions: Compound concentration 1.0 uM, tested as the 2H-labelled form
[36] = molecular target: Ribosomal protein S6 kinase alpha-3 (Homo sapiens) (UniProt P51812); experiment: Rsk2(h) Kinase panel; conditions: Compound concentration 1.0 uM, tested as the 2H-labelled form
[37] = molecular target: Serine/threonine-protein kinase PLK2 (Homo sapiens) (UniProt Q9NYY3); experiment: Snk(h) Kinase panel; conditions: Compound concentration 1.0 uM, tested as the 2H-labelled form
[38] = molecular target: Serine/threonine-protein kinase 32C (Homo sapiens) (UniProt Q86UX6); experiment: STK32C(h) Kinase panel; conditions: Compound concentration 1.0 uM, tested as the 2H-labelled form
[39] = molecular target: Transcription initiation factor TFIID subunit 1-like (Homo sapiens) (UniProt Q8IZX4); experiment: TAF1L(h) Kinase panel; conditions: Compound concentration 1.0 uM, tested as the 2H-labelled form
[40] = molecular target: Tyrosine-protein kinase Tec (Homo sapiens) (UniProt P42680); experiment: Tec(h) activated Kinase panel; conditions: Compound concentration 1.0 uM, tested as the 2H-labelled form
[41] = molecular target: TRAF2 and NCK-interacting protein kinase (Homo sapiens, UniProt Q9UKE5); experiment: TNIK(h) Kinase panel; conditions: Compound concentration 1.0 uM, tested as the 2H-labelled form
TRAF2 and NCK-interacting protein kinase, sequence (Q9UKE5 whole entry, looked up): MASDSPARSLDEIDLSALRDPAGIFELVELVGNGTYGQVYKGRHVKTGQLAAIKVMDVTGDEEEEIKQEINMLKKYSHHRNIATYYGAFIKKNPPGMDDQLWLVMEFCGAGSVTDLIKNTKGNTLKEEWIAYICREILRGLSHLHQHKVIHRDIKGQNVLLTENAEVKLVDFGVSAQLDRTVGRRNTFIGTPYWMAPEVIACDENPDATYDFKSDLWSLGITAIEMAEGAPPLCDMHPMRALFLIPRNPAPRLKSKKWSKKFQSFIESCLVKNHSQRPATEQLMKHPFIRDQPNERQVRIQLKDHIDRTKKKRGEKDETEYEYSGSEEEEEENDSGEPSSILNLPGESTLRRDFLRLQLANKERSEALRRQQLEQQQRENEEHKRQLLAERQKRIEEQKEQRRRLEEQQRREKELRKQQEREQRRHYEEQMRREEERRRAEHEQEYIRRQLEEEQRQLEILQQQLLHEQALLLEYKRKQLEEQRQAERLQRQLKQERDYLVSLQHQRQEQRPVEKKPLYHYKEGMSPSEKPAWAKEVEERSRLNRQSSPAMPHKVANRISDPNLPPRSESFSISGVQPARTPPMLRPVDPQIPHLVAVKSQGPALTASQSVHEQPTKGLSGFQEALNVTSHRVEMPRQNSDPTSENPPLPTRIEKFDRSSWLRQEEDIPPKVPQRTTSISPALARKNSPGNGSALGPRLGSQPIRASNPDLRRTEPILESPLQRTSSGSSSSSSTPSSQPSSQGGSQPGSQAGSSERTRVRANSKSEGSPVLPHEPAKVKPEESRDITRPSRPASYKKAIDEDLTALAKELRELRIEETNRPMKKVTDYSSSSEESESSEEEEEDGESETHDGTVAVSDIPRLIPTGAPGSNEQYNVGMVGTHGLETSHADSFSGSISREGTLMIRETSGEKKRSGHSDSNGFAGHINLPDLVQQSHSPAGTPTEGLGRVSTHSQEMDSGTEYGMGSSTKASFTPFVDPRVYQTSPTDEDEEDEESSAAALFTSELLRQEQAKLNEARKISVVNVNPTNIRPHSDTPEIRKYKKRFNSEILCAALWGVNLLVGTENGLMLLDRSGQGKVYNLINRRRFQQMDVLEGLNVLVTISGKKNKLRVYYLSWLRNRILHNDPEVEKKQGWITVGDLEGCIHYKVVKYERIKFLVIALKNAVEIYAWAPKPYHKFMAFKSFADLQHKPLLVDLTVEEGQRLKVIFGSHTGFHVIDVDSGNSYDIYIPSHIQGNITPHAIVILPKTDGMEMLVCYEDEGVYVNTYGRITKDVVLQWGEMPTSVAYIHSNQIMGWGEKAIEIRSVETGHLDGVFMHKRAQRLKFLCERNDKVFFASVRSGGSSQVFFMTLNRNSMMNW

[42] = molecular target: Serine/threonine-protein kinase WNK4 (Homo sapiens) (UniProt Q96J92); experiment: WNK4(h) Kinase panel; conditions: Compound concentration 1.0 uM, tested as the 2H-labelled form
[43] = molecular target: Serine/threonine-protein kinase ATR (Homo sapiens) (UniProt Q13535); experiment: ATR/ATRIP(h) Kinase panel; conditions: Compound concentration 1.0 uM, tested as the 2H-labelled form
[44] = molecular target: Phosphatidylinositol 4,5-bisphosphate 3-kinase catalytic subunit beta isoform (Homo sapiens) (UniProt P42338); experiment: PI3 Kinase (p110b/p85a)(h) Kinase panel; conditions: Compound concentration 1.0 uM, tested as the 2H-labelled form
[45] = molecular target: Phosphatidylinositol 3-kinase C2 domain-containing subunit gamma (Homo sapiens) (UniProt O75747); experiment: PI3KC2g(h) Kinase panel; conditions: Compound concentration 1.0 uM, tested as the 2H-labelled form
[46] = molecular target: 5-hydroxytryptamine receptor 2C (Homo sapiens) (UniProt P28335); conditions: Compound concentration 10.0 uM, tested as the 2H-labelled form
[47] = molecular target: 5-hydroxytryptamine receptor 5A (Homo sapiens) (UniProt P47898); conditions: Compound concentration 10.0 uM, tested as the 2H-labelled form
[48] = molecular target: 5-hydroxytryptamine receptor 6 (Homo sapiens) (UniProt P50406); conditions: Compound concentration 10.0 uM, tested as the 2H-labelled form
[49] = molecular target: Sodium-dependent serotonin transporter (Homo sapiens) (UniProt P31645); conditions: Compound concentration 10.0 uM, tested as the 2H-labelled form
[50] = molecular target: Mu-type opioid receptor (Homo sapiens) (UniProt P35372); conditions: Compound concentration 10.0 uM, tested as the 2H-labelled form
[51] = molecular target: Alpha-1A adrenergic receptor (Homo sapiens) (UniProt P35348); conditions: Compound concentration 10.0 uM, tested as the 2H-labelled form
[52] = molecular target: Alpha-1D adrenergic receptor (Homo sapiens) (UniProt P25100); conditions: Compound concentration 10.0 uM, tested as the 2H-labelled form

- inhibition [1]: 4%
- inhibition [2]: -10%
- inhibition [3]: 4%
- inhibition [4]: -9%
- inhibition [5]: -2%
- inhibition [6]: 10%
- inhibition (Homo sapiens [7]): 2%
- inhibition [8]: 6%
- inhibition [9]: 14%
- inhibition [10]: 15%
- inhibition [11]: 8%
- inhibition [12]: -10%
- inhibition [13]: 7%
- inhibition [14]: 11%
- inhibition [15]: 16%
- inhibition [16]: 0%
- inhibition [17]: 17%
- inhibition [18]: -10%
- inhibition (Homo sapiens [19]): 6%
- inhibition [20]: 4%
- inhibition [21]: 9%
- inhibition [22]: -9%
- inhibition [23]: -8%
- inhibition [24]: -9%
- inhibition [25]: 5%
- inhibition [27]: 12%
- inhibition [28]: -10%
- inhibition [29]: 11%
- inhibition [30]: -9%
- inhibition [31]: 18%
- inhibition [32]: 4%
- inhibition [33]: 5%
- inhibition [34]: 16%
- inhibition [35]: -6%
- inhibition [36]: 20%
- inhibition [37]: -4%
- inhibition [38]: 4%
- inhibition [39]: 3%
- inhibition [40]: 29%
- inhibition [41]: 50%
- inhibition [42]: 10%
- inhibition [43]: 16%
- inhibition [44]: 0%
- inhibition [45]: -4%
- inhibition [46]: -1.69%
- inhibition [47]: 3.27%
- inhibition [48]: -1.55%
- inhibition [49]: 2.66%
- inhibition [50]: -6.9%
- inhibition [51]: 0.58%
- inhibition [52]: 8.27%
SMILES: CC1(C)Cn2nc(-c3ccc(F)cn3)c(-c3ccnc4[nH]ncc34)c2CO1
- inhibition [26]: 6%
